The values that follow come from patent US4866058A, “Method for control of hyperlipidemia” (priority 1988, dated 1989).

Usually LD50 stands for the dose at which mortality reaches 50%.

Like-named read-outs stand apart in the source and are kept apart here.

Data set [1] concerns serum cholesterol and serum triglyceride levels. Description: Testing of normal mice: hypolipidemic activity in CF1 mice. The data set is classed as in vivo, CF1 male mice. The settings on record: Mus musculus, ip. As to the method:
The following compounds were tested for their hypolpidemic activity in CF1 mice.
Compounds A-V as defined above, were suspended in an aqueous 1 percent carboxymethylcellulose (CMC) solution and homogenized. Each of the so prepared compounds were administered to a group of six CF1 male mice, each weighing approximately 25 grams, intraperitioneally for 16 days. Each of these compounds were provided in a dosage of 20 mg/kg/d ip. On Days 9 and 16 blood was obtained by tail vein bleeding. The blood serum so obtained was separated by centrifugation for three minutes. Serum cholesterol levels were determined by a modification of the Liebermann-Burchard reaction (Ness, Clin. Chim. Acta., Vol. 10, 229 [1964]). Serum triglyceride levels were determined on Day 16 by use of the Fisher, Hycel Triglyceride Test Kit.
In addition to the above-described treated mice, an untreated control group of six mice were similarly tested on Days 9 and 16 to determine their serum cholesterol and trigylceride blood levels. Based on the results obtained for the untreated control group, the percent control, based on serum cholesterol and serum triglyceride levels of the treated mice compared to the untreated mice, was obtained. Table 1 reports this percent control, including standard deviation, indicating the level of confidence of these numbers.

The test system is the same in data set [2]. Nature of the data set: Testing of hyperlipidemic mice (atherogenic diet). The settings on record: hyperlipidemic CF1 mice, 20 mg/kg/d intraperitoneally, Day 12. The data set is classed as in vivo, CF1 male mice. Here is the method:
A group of six CF^1 male mice (about 25 g) were placed on a commercial diet (U.S. Biochemical Corporation Basal Atherogenic Test Diet) which produced a "hyperlipidemic" state. That is, the average serum cholesterol level in the group of treated mice was raised from 122 to 375 mg percent and triglyceride levels were raised from 137 to 367 mg/dL.

Data set [3] concerns Serum cholesterol and triglyceride levels. Nature of the data set: Serum testing of normal rats. The settings on record: 20 mg/kg per day orally. Format: in vivo, Sprague-Dawley male rats. An excerpt: (§1) A test solution of Compounds A, F, J, M, N and O were suspended in an aqueous solution of 1% CMC, homogenized and administered orally to six Sprague-Dawley male rats, which each weighted approximately 350 grams. Administration of the compounds was by an intubation needle. The rats were each fed with 20 milligrams of Compounds A, F, J, M, N and O per kilogram of body weight per day for 14 days. Similarly, six Sprague-Dawley male rats of approximately the same weight (that used for testing F weighed approximately 160 grams) were fed similar volumes of the same aqueous 1% CMC solution without the active agents, also orally, administered by intubation needle. In addition, as a control, a similar group of six male Sprague-Dawley rats were untreated.
On Days 7 and 14, blood was obtained from each of the rats of the three groups by tail vein bleeding. The blood obtained was separated by centrifugation for three minutes. Serum cholesterol and triglyceride levels were determined in accordance with the procedure of Example 6.

Data set [4] concerns serum lipoprotein. Nature of the data set: Cholesterol content of serum lipoprotein of treated Sprague-Dawley rats. The data set is classed as in vivo. To be noted: orally 14 days at 20 mg/kg/day.
Source text: as §1
The cholesterol content of serum lipoprotein
of Sprague-Dawley Rats treated
orally for 14 days at 20 mg/kg/day

Data set [5] in a line: LD50 value in mice as single injection IP. To be noted: mouse, in vivo.

For `CCOC(=O)C1n2c(=O)n(-c3ccccc3)c(=O)n21` [M, 3-phenyl-6-ethoxycarbonyl-1,3,5-triazabicyclo[3.1.0]hexane-2,4-dione], in data set [1] (216 h, read-out: Serum Cholesterol, Day 9), the response vs control in vivo at 20 mg/kg/day is 62 ± 6%. Moreover, in data set [1] (384 h, read-out: Serum Cholesterol, Day 16), the response vs control in vivo at 20 mg/kg/day was found to be 57 ± 5%. Besides, in data set [1] (384 h, read-out: Serum Triglyceride, Day 16), the response vs control in vivo at 20 mg/kg/day worked out at 59 ± 6%. In data set [2], the “Serum Cholesterol” value is recorded as 46% of Control and the “Serum Triglyceride” value is 54% of Control. Besides, in data set [3] (Day 7), the “Serum Cholestrol, Day 7” value is given as 70% of Control and the “Serum Triglyceride, Day 7” value is 36% of Control. Further, in data set [3] (Day 14), the “Serum Cholestrol, Day 14” value is listed as 36% of Control and the “Serum Triglyceride, Day 14” value is listed as 54% of Control. Moreover, in data set [4], the HDL cholesterol is 340% of Control, the LDL cholesterol was 67% of Control and the VLDL cholesterol is on record as 71% of Control. Moreover, the median lethal dose (LD50) in data set [5] was more than 500 mg/kg.
